Test results: patent US5079257A, “Indoloquinone compounds” (priority 1986, dated 1992)
Read-outs that look alike come from different tables or passages of the source.

Experiments:
[1] = system: Lung-NSCLC (LXFG) line; experiment: Human tumour xenograft in nude mice: lung; format: in vivo; details: i.v. days 14 and 21, 4 and 6 mg/kg
Text: (§1) Based on the results obtained during the in vitro experiments indoloquinone E.O. 9 was selected for an extended in vivo study. The activity of this compound has been determined in four human tumour xenografts transplanted in nude mice.
(§2) The xenograft experiments have been carried by Dr. H. H. Fiebig of the University of Freiburg [Lung-NSCLC (LXGF) line, Renal line, Breast line; See: H. H. Fiebig et al., Behring Inst. Mitt., 74 343] and by Dr. E. Boven of the Free University Hospital Amsterdam [Ovarian (MRI-H-207) line; See: E. Boven et al., Cancer Res., 45, 86 (1985) and E. Boven et al., Eur. J. Clin. Oncol., 21, 1253 (1985)].
The tumour was transplanted s.c. and E.O. 9 was administrated i.v. on days 14 and 21 after transplantation at a dose of 4 and 6 mg/kg.

[2] = system: Breast line; experiment: Human tumour xenograft in nude mice: breast; format: in vivo; details: i.v. days 46 and 53, 4 and 6 mg/kg
Text: as §1, §2
The tumour was transplanted s.c. and E.O. 9 was administrated i.v. on days 46 and 53 after transplantation at a dose of 4 and 6 mg/kg.

[3] = system: Renal line (RXF 423); experiment: Human tumour xenograft in nude mice: renal; format: in vivo; details: i.v. days 22 and 29, 4 and 6 mg/kg
Text: as §1, §2
The tumour was transplanted s.c. and E.O. 9 was administrated i.v. on days 22 and 29 after transplantation at a dose of 4 and 6 mg/kg.

[4] = system: Ovarian (MRI-H-207) line; format: in vivo, human; details: for T/C % / toxic deaths: days of treatment 0.7
Text: as §2
Mice: C57B1 athymic (nu/nu) female mice, 8 to 10 weeks of age were used for s.c. bilateral implantation of tumour fragments 2 mm diameter.
Treatment: E.O. 9 was dissolved in saline at a concentration of 0.5 mg/ml prior to administration. Drug doses and schedules were derived from studies in experimental murine tumour systems and from orientation studies in non-tumour-bearing nude mice. Treatment was started i.v. when tumours measured 50-150 mm^3. After randomization a group of 6-7 tumour-bearing mice was treated and a group of 5-6 tumour-bearing mice served as control.
Evaluation of efficacy: Tumours were measured twice weekly in three dimensions. Efficacy was expressed as the mean of relative tumour volume in treated animals vs. that in control animals×100 (% T/C). The optimal value was calculated within 35 days after the last injection. Toxic death (dead mice within two weeks after the last injection) were excluded from the evaluation.
MRI-H-207: An undifferentiated adenocarcinoma kindly provided by Dr. A. E. Bogden, Worcester, Mass, with a doubling time of 3-5 days.

Cn1c(/C=C/CO)c(CO)c2c1C(=O)C=C(N1CC1)C2=O [E.O. 9, 5-Aziridino-3-hydroxymethyl-1-methyl-2-[1H-indole-4,7-dione]prop-β-en-α-ol]
optimal growth inhibition [1]: 42%
specific growth delay [1]: 1.03
optimal growth inhibition [2]: 51%
growth inhibition [3]: No significant growth inhibition
T/C % ([4]; 5 mg/kg): 3.8%
toxic deaths ([4]; 5 mg/kg): 0/7
T/C % ([4]; 6 mg/kg): 2.4%
toxic deaths ([4]; 6 mg/kg): 1/7
optimal growth inhibition ([4]; 5 and 6 mg/kg q8d×2): 98%
